From the NIST ThermoML archive (doi:10.1016/j.jct.2009.08.009)

Assay: xn = mol fraction of the nth substance listed
Conditions: 101 kPa, Liquid; for viscosity: Capillary tube (Ostwald / Ubbelohde) method; for speed of sound: Sing-around technique in a fixed-path interferometer; for mass density: Vibrating tube method

CCOCCOCCO [3,6-dioxa-1-octanol] + CCCCCCCCCCO
Conditions | mass density [kg/m3] | speed of sound [m/s] | viscosity [mPa·s]
293.15 K, x1 = 0.0607 | 836.419 | 1394.1 | 11.4
293.15 K, x1 = 0.109 | 841.997 | 1392.3 | 10.28
293.15 K, x1 = 0.1561 | 847.628 | 1390.6 | 9.367
293.15 K, x1 = 0.2105 | 854.439 | 1388.9 | 8.743
293.15 K, x1 = 0.2599 | 862.044 | 1387.4 | 7.761
293.15 K, x1 = 0.3089 | 867.859 | 1386.6 | 7.383
293.15 K, x1 = 0.3533 | 874.329 | 1385.8 | 6.336
293.15 K, x1 = 0.4923 | 896.636 | 1385.3 | 5.731
293.15 K, x1 = 0.5986 | 916.267 | 1387.2 | 5.141
293.15 K, x1 = 0.7153 | 940.786 | 1392.6 | 4.525
293.15 K, x1 = 0.7918 | 959.008 | 1398.6 | 4.186
293.15 K, x1 = 0.901 | 988.518 | 1412.6 | 3.899
293.15 K, x1 = 1 | – | – | 3.626
298.15 K, x1 = 0.0607 | 832.969 | 1377 | 9.658
298.15 K, x1 = 0.109 | 838.521 | 1375.3 | 8.774
298.15 K, x1 = 0.1561 | 844.112 | 1373.6 | 8.059
298.15 K, x1 = 0.2105 | 850.88 | 1371.8 | 7.574
298.15 K, x1 = 0.2599 | 858.441 | 1370.5 | 6.868
298.15 K, x1 = 0.3089 | 864.217 | 1369.6 | 6.353
298.15 K, x1 = 0.3533 | 870.65 | 1368.9 | 6.008
298.15 K, x1 = 0.4923 | 892.825 | 1368.4 | 5.027
298.15 K, x1 = 0.5986 | 912.348 | 1370.3 | 4.479
298.15 K, x1 = 0.7153 | 936.739 | 1375.7 | 4.005
298.15 K, x1 = 0.7918 | 954.872 | 1381.7 | 3.729
298.15 K, x1 = 0.901 | 984.244 | 1395.6 | 3.449
298.15 K, x1 = 1 | – | – | 3.278
303.15 K, x1 = 0.0607 | 829.51 | 1360.1 | 8.114
303.15 K, x1 = 0.109 | 835.031 | 1358.4 | 7.312
303.15 K, x1 = 0.1561 | 840.589 | 1356.8 | 6.739
303.15 K, x1 = 0.2105 | 847.315 | 1355.1 | 6.387
303.15 K, x1 = 0.2599 | 854.826 | 1353.7 | 5.858
303.15 K, x1 = 0.3089 | 860.567 | 1352.8 | 5.366
303.15 K, x1 = 0.3533 | 866.962 | 1352.1 | 5.083
303.15 K, x1 = 0.4923 | 889.005 | 1351.7 | 4.338
303.15 K, x1 = 0.5986 | 908.42 | 1353.7 | 3.859
303.15 K, x1 = 0.7153 | 932.679 | 1358.9 | 3.458
303.15 K, x1 = 0.7918 | 950.728 | 1364.9 | 3.235
303.15 K, x1 = 0.901 | 979.965 | 1378.8 | 3.021
303.15 K, x1 = 1 | – | – | 2.862
308.15 K, x1 = 0.0607 | 826.037 | 1343.3 | 6.698
308.15 K, x1 = 0.109 | 831.525 | 1341.6 | 6.116
308.15 K, x1 = 0.1561 | 837.051 | 1340.1 | 5.838
308.15 K, x1 = 0.2105 | 843.734 | 1338.4 | 5.38
308.15 K, x1 = 0.2599 | 851.204 | 1336.9 | 4.826
308.15 K, x1 = 0.3089 | 856.908 | 1336.2 | 4.528
308.15 K, x1 = 0.3533 | 863.255 | 1335.5 | 4.319
308.15 K, x1 = 0.4923 | 885.17 | 1335.1 | 3.697
308.15 K, x1 = 0.5986 | 904.477 | 1337 | 3.346
308.15 K, x1 = 0.7153 | 928.613 | 1342.4 | 2.978
308.15 K, x1 = 0.7918 | 946.566 | 1348.3 | 2.817
308.15 K, x1 = 0.901 | 975.664 | 1362.1 | 2.67
308.15 K, x1 = 1 | – | – | 2.507
